# Assay results from a melting point compilation (Tetko et al.; mined from patent text by program, amines drawn as free bases though some values may be those of a salt).
row,Structure (SMILES),melting point [°C]
1,Cc1ccc(-c2csc3nc(C)c(CCCl)c(=O)n23)cc1,152 to 165
2,Clc1ccc2nc(Cl)c3nnc(-c4ccccc4)n3c2c1,305 to 307
3,Cc1cccc(-c2nc(NC(=O)c3ccc(Cl)nc3)sc2-c2ccnc(NC3CCCC3)c2)c1,211 to 212
4,O=C(O)C1=Cc2cc(Cl)c(Oc3ccc(C(=O)O)cc3Cl)cc2OC1C(F)(F)F (stereo unspecified),> 300
5,COc1ccc(/C=C/c2ccc3c(=O)n(-c4ccccc4)ncc3c2)cc1,198 to 199
6,CS(=O)(=O)c1ccc(OCCCCl)cc1,84 to 86
7,CCn1cc(-c2nc(C(N)=O)c(N)nc2-c2ccccc2)ccc1=O,> 250
8,O=C1NCc2c1cc1ccc3c(c1c2-c1ccc(Br)cc1)OCO3,273 to 274
9,CN1C(=O)CC[C@H]1COc1cccnc1,73 to 74
10,CCOC(=O)C1=C(COCC(C)O)NC(C)=C(C(=O)OC)C1c1cccc(Cl)c1Cl (stereo unspecified),110 to 113
11,COc1cc2c(cc1OC)CN(CCCCNC(=O)c1cc(I)ccc1OCCF)CC2,121 to 123
12,NN=CNCC(=O)NC1CCCCC1,232 to 234
13,Cc1ccc(C(=O)c2cc3cc(Br)ccc3n2C)cc1,169 to 171
14,CCCc1c(OCc2ccc(C=CC(=O)OC)cc2)ccc(C(C)=O)c1O,121 to 125
15,COC(=O)c1ccc(C)nc1Oc1nc(OC)cc(OC)n1,99 to 103
16,O=C(O)c1ccccc1Nc1c(O)ccc2ccccc12,214 to 217
17,CC(=O)c1ccc2nccc(OS(=O)(=O)C(F)(F)F)c2c1,94
18,CC(C)(Cc1nc2c(N)nc3ccccc3c2s1)OC(N)=O,222 to 223
19,CC(O)=C1C(=O)CC(c2ccccc2Cl)CC1=O (stereo unspecified),100 to 101
20,Nc1cc2nc(C(=O)O)c(=O)[nH]c2cc1[N+](=O)[O-],300
21,CC(C)C(S)C(=O)NC1(C(=O)NC(Cc2ccc(-c3ccccc3)s2)C(=O)O)CCCC1 (stereo unspecified),154 to 155
22,COc1cc2c(cc1Nc1ncc(Cl)c(N[C@H]3[C@@H](C(N)=O)[C@@H]4C=C[C@H]3C4)n1)CCN(CC(=O)N1CCOCC1)CC2,163

row,Structure (SMILES),melting point [°C]
1,CCOC(=O)c1ncc2[nH]c3ccc(C#N)cc3c2c1COC,252 to 255
2,CC(=O)C(=NO)c1ccc(OC[Si](C)(C)c2ccc(F)cc2)cc1,115 to 117
3,Cc1cccc(C)c1OCC(=O)NC(C)C(N)=O (stereo unspecified),177 to 178
4,COc1ccc(CN2C(=O)C(c3cc4c(C)noc4cc3O)c3ccccc32)cc1 (stereo unspecified),195 to 197
5,O=C(Cc1ccccc1)Oc1cc(=O)n(-c2ccccc2)c2ncccc12,179 to 180
6,COC(=O)c1ccc2oc(Cl)nc2c1,104 to 106
7,Oc1ccccc1CNCc1cccc(CNCc2ccccc2O)c1,61 to 63
8,OCc1ccc(-c2ccccc2)s1,91.5
9,CN1CC(C(=O)CN2CCOCC2)CC2c3cccc4[nH]cc(c34)CC21 (stereo unspecified),178 to 180
10,COc1ccc2c(c1)c(=O)c(CSC)cn2C,122 to 123
11,Cc1oc(-c2ccccc2)nc1COc1ccc(Cn2cc(CCC(=O)O)c(O)n2)cc1,197 to 198
12,CS(=O)(=O)N(c1cccc(C(=O)NCc2nc[nH]n2)c1)C1CN(C(c2ccc(Cl)cc2)c2ccc(Cl)cc2)C1,210
13,O=C(O)c1ccc2nc3ccccn3c(=O)c2c1,> 310
14,Cc1nc(Cl)c([N+](=O)[O-])c(N(c2ccccc2)c2ccccc2)n1,128 to 130
15,CCc1csc(-n2cc(C)cc2-c2ccc(S(N)(=O)=O)cc2)c1,139 to 141
16,COc1ccc(C(=O)Nc2ccc(C(C)(C)CNC(C)=O)c(-c3cccnc3)c2)cc1OC,234 to 237
17,C=CCN1Cc2nc3c(cnn3CCC#CC)c(N)c2C1=O,192 to 194
18,CC(C)n1cc(C(=O)Nc2nccs2)c2ccc(S(C)(=O)=O)cc21,247 to 249
19,COc1cc(C=Cc2ccccc2)c(C#N)c(OC)c1,147 to 148
20,CN1CCC(=C2c3ccccc3COc3cc(Cl)ccc32)CC1,113 to 116
21,Cc1ccccc1-c1ccc(C(=O)N2Cc3ccc(C(=O)NCc4ccccc4C(F)(F)F)n3Cc3ccccc32)cc1C,126 to 128

# Now from value to molecule:
row,melting point [°C],Structure (SMILES)
1,179 to 180,Cc1csc(C(=O)O)c1NC(=O)OC(C)(C)C
2,280 to 283,O=C1NC2CCCC1NC2=O
3,224 to 226,O=CNNc1ccccc1NC(=S)Nc1ccccc1
4,109 to 110,Cc1cn(C(C)C(=O)N(C)C)nc1-c1ccc(Cl)c(Cl)c1 (stereo unspecified)
5,42 to 44,CCc1cc2ccccn2c1
6,138 to 139,COC(=O)N=P(c1ccccc1)(c1ccccc1)c1ccccc1
7,209 to 211,COc1ccc(C(=O)Nc2ccccc2)cc1NS(=O)(=O)c1ccc(F)cc1
8,174 to 176,COc1ccc(/C=N/Nc2ccccc2C(=O)O)cc1OC1CCCC1
9,209,O=C(Cc1ccc2c(c1)OCO2)N[C@H]1CC[C@H](CCN2CCC(c3cccc4c3CCO4)CC2)CC1
10,60 to 65,CC1(C)Oc2ccc(OC(F)(F)F)cc2[C@@H](NC(=O)c2ccc(C(F)(F)F)cc2[N+](=O)[O-])[C@@H]1O
11,68 to 71,CCCc1c(OCCCCOCCCCOc2c(C(C)=O)ccc(OCC(=O)O)c2CCC)ccc(C(C)=O)c1O
12,105,CC(O)(C#CCCO)c1ccc(-c2ccc(Cl)cc2)cc1 (stereo unspecified)
13,200 to 202,CCCCOc1ccc(-n2cc(C(=O)O)cn2)cc1C#N
14,164 to 165,Cc1ccc(-c2nn(CCCO)c(N)c2C(N)=O)cc1
15,216 to 220,CN(Cc1ccc(NC(=O)/C=C/c2ccc(-c3ccc(C(C)(C)C)cc3)s2)cc1)C1CCOCC1
16,82 to 84,CCCNCC1Cc2ccc(C3=NNC(=O)CC3)cc2C1 (stereo unspecified)
17,184 to 186,COC(=O)CCNC(=O)c1ccc2c(c1)nc(-c1ccc(C(=N)N)cc1)n2CCCCc1ccccc1
18,140 to 142,COc1ccc(CNC2SC(=O)NC2=O)cc1 (stereo unspecified)
19,97 to 98,CC(=O)c1ccc(-c2ccc(N(c3ccccc3)c3ccccc3)cc2)cc1
20,238 to 240,O=C(O)CC1(O)CCC(N2CCN(CCNc3ccncc3)CC2)CC1 (stereo unspecified)

row,melting point [°C],Structure (SMILES)
1,149 to 150,COc1ccc(C2(C#N)CCC(CC(=O)O)CC2)c2c1OCCO2 (stereo unspecified)
2,184 to 187,COc1ccc(N=C2SC(=CC(=O)O)C(=O)N2c2ccc(OC)cc2)cc1
3,213 to 215,O=C(Nc1cccc(-c2ccccc2)c1)Nc1cccc2[nH]ccc12
4,109 to 110,CCOC(=O)c1sc(OCC)c2c1CCc1cnn(C)c1-2
5,94 to 96,CC(C)(C)OC(=O)N(C(=O)OC(C)(C)C)c1cnc(-c2cncc(F)c2)s1
6,111 to 113,COC(=O)Cc1cccc(C(=O)c2ccc(O)cc2)c1
7,181 to 183,O=C(O)C(O)c1cccc(OCc2ccccc2Cl)c1OCc1ccncc1 (stereo unspecified)
8,55 to 57,CCN1c2ncc(CN(C)c3ccccc3)cc2C(=O)N(C)c2ccc(Cl)nc21
9,133 to 134,CCOc1nn(Cc2ccc(OCc3nc(-c4ccccc4)oc3C)cn2)cc1CCC(=O)O
10,124 to 125,O=C(COc1cccc2cccnc12)c1ccccc1
11,97 to 100,COc1ccc2c(CBr)c(F)ccc2c1C(F)(F)F
12,48 to 51,C=C(c1ccc(OC)c(C)c1)c1ccc(C)c(Br)c1
13,121 to 122,O=C(NN=C(c1ccc(Cl)cc1)c1ccc(OC(F)(F)C(Cl)Cl)cc1)c1ccccc1
14,165 to 175,COC(=O)c1c[nH]c(Sc2cc(Cl)c(Cl)cc2Cl)c1
15,67 to 69,COC(=O)C(C(C)C)N(C)S(=O)(=O)c1ccc(-c2ccc(NC(=O)c3cc4ccccc4o3)cc2)cc1 (stereo unspecified)
16,44 to 46,CCCCCCCCCCCCCCC(C)C(=O)O (stereo unspecified)
17,217 to 219,COc1cc(F)ccc1CCN1c2nc(-c3ccncc3)cc(=O)n2CCC1(C)C
18,239 to 241,Cn1cnnc1COc1nn2c(-c3cc(Cl)on3)nnc2c2ccccc12
19,> 260,COc1ccc(OC)c2c1C(=O)c1c-2[nH]c2ccc(O)cc12
20,148 to 150,CN1C(=O)CC[C@]2(C)c3ccc(-c4ccc(Oc5ccccc5)cc4)cc3CC[C@@H]12

row,melting point [°C],Structure (SMILES)
1,217 to 218,ON=c1cc(-c2cc3cccn3cn2)oc2ccc(OCCc3cccc(C(F)(F)F)c3)cc12
2,133 to 135,CCn1c(=O)n(OCc2ccccc2)c(=O)c2cc(F)c(F)cc21
3,188,COC(=O)CN1C(=O)c2ccc3ccccc3c2S1(=O)=O
4,165 to 171,Cc1cc(C(=O)N(C)C)cc(N)n1
5,154,CCC1=NNC(C)=C(C(=O)OCc2ccccc2)C1c1cccc([N+](=O)[O-])c1 (stereo unspecified)
6,226 to 228,CCCNC(=O)c1ccc(Nc2nc(OCC3CCCCC3)c3nc[nH]c3n2)cc1
7,197 to 198,FC(F)(F)c1cccc(Nc2nccc(-c3ccncc3)n2)c1
8,134 to 139,CC(C)CC(N=O)C(=O)NC(CC(C)C)C(=O)O (stereo unspecified)
9,174 to 176,COc1cc2c(Nc3ccc(Cl)cc3F)ncnc2cc1OCCSC
10,69 to 70,Clc1csc(-c2nc(COc3ccc(CCCn4ccnc4)cc3)co2)c1
11,203 to 206,O=C1COc2c(cc(Cl)cc2C(=O)NC2CCN(Cc3ccccc3)CC2)N1
12,278 to 279,Cc1c(C(=O)O)cnn1-c1nc(-c2ccc(Cl)c(Cl)c2)cs1
13,105 to 106,COc1ccccc1CN1CCCc2cc(OCc3ccccc3)c(OC)cc2C1
14,183 to 184,O=C(NCCCCCCNC(=O)c1ccc(Oc2ccccc2)cc1)c1ccc(Oc2ccccc2)cc1
15,148 to 149,O=c1nc(Cl)cnn1-c1cc(Cl)cc(Cl)c1
16,73 to 75,COc1ccc(-c2cccc(C3=CCC(OC(Cc4ccccc4)C(=O)O)(c4c(Cc5ccccc5)oc5ccccc45)C=C3)c2)cc1 (stereo unspecified)
17,85 to 86,CCOC(=O)c1ccccc1-c1cc(-c2ccc(Cl)cc2Cl)no1
18,211 to 213,N#Cc1ncn2c1[C@@H]1CCN1C(=O)c1sccc1-2
